Test results as given in patent US7956196B2, “1,3-dihydro-benzimidazol-2-ylidene amines as inhibitors of respiratory syncytial virus replication” (Tibotec Pharmaceuticals Ltd., priority 2005, dated 2011).

Key:
[1] = tested on: Respiratory Syncytial Virus; test: In vitro screening for activity against RSV, automated tetrazolium-based (MTT) colorimetric assay in HeLa cells; format: cell-based; conditions: human respiratory syncytial virus, 168 h; protection against RSV cytopathology in HeLa cells, MTT readout seven days after infection; read-out: pIC50 (converted)
Source text: In vitro screening of compounds of formula (I) for activity against RSV. The percent protection against cytopathology caused by viruses (antiviral activity or EC50) achieved by tested compounds and their cytotoxicity (CC50) are both calculated from dose-response curves. The selectivity of the antiviral effect is represented by the selectivity index (SI), calculated by dividing the CC50 (cytotoxic dose for 50% of the cells) by the EC50 (antiviral activity for 50% of the cells). The tables in the above experimental part list the category to which each of the prepared compounds belong: Compounds belonging to activity category “A” have a pEC50 (-log of EC50 when expressed in molar units) equal to or more than 7. Compounds belonging to activity category “B” have a pEC50 value between 6 and 7.
Automated tetrazolium-based colorimetric assays were used for determination of EC50 and CC50 of test compounds. Flat-bottom, 96-well plastic microtiter trays were filled with 180 μl of Eagle's Basal Medium, supplemented with 5% FCS (0% for FLU) and 20 mM Hepes buffer. Subsequently, stock solutions (7.8×final test concentration) of compounds were added in 45 μl volumes to a series of triplicate wells so as to allow simultaneous evaluation of their effects on virus- and mock-infected cells. Five five-fold dilutions were made directly in the microtiter trays using a robot system. Untreated virus controls, and HeLa cell controls were included in each test. Approximately 100 TCID50 of Respiratory Syncytial Virus was added to two of the three rows in a volume of 50 μl. The same volume of medium was added to the third row to measure the cytotoxicity of the compounds at the same concentrations as those used to measure the antiviral activity. After two hours of incubation, a suspension (4×10^5 cells/ml) of HeLa cells was added to all wells in a volume of 50 μl. The cultures were incubated at 37° C. in a 5% CO2 atmosphere. Seven days after infection the cytotoxicity and the antiviral activity was examined spectrophotometrically. To each well of the microtiter tray, 25 μl of a solution of MTT (3-(4,5-dimethylthiazol-2-yl)-2,5-diphenyltetrazolium bromide) was added. The trays were further incubated at 37° C. for 2 hours, after which the medium was removed from each cup. Solubilization of the formazan crystals was achieved by adding 100 μl 2-propanol. Complete dissolution of the formazan crystals were obtained after the trays have been placed on a plate shaker for 10 min. Finally, the absorbances were read in an eight-channel computer-controlled photometer (Multiskan MCC, Flow Laboratories) at two wavelengths (540 and 690 nm). The absorbance measured at 690 nm was automatically subtracted from the absorbance at 540 nm, so as to eliminate the effects of non-specific absorption.
The percent protection against cytopathology caused by viruses (antiviral activity or EC50) achieved by tested compounds and their cytotoxicity (CC50) were both calculated from dose-response curves. The selectivity of the antiviral effect is represented by the selectivity index (SI), calculated by dividing the CC50 (cytotoxic dose for 50% of the cells) by the EC50 (antiviral activity for 50% of the cells).

| SMILES | IC50 [1] [µM] | melting point [°C] |
| --- | --- | --- |
| N#Cc1ccc(Cn2c(=NCCc3ccc(O)cc3)n(Cc3cccc4cccnc34)c3ccccc32)cc1 [Compound 4] | 0.0126 | 160 |
| CC(C)Oc1ccc(C(=O)N=c2n(Cc3ccc(C#N)cc3)c3ccccc3n2Cc2cccc3cccnc23)cc1 [Compound 30] | 50.1 | 118 |
| COC(=O)c1ccc(Cn2c(=NCCC(c3ccccc3)c3ccccc3)n(Cc3cccc4cccnc34)c3ccccc32)cc1 [Compound 38] | 0.158 | 146 |
